Test results as given in patent US8592422B2, “Bicyclic triazole and pyrazole lactams as allosteric modulators of mGluR5 receptors” (Vanderbilt University, priority 2010, dated 2013).
Where two headings read alike, the source gives them in different places.

Molecular target: T1, human mGluR5a receptor (Homo sapiens, UniProt P41594)
T1 construct: cDNA subcloned into pcDNA3.1(-)
Assay: Cell-based functional Ca2+ mobilization assay (FDSS), potentiation of glutamate EC20 response
Details: for pEC50 / EC50: HEK cells transfected with human mGluR5 (H10H or H12H), in presence of EC20 glutamate; for Emax (%) / Emax: maximum % effect in concentration-response curve, as percent of response to maximally effective glutamate
Procedure: Human embryonic kidney (HEK) cells transfected with rat mGluR5 were plated in clear bottom assay plates for assay in a Functional Drug Screening System (FDSS). In the alternative assay, HEK cells transfected with human mGluR5 were plated for assay in the FDSS. In some cases the HEK cells transfected with human mGluR5 were the H10H cell line. Alternatively, the HEK cells transfected with human mGluR5 were the H12H cell line. […] The cells were loaded with a Ca^2+-sensitive fluorescent dye (e.g., Fluo-4), and the plates were washed and placed in the FDSS instrument. After establishment of a fluorescence baseline for twelve seconds, the compounds of the present invention were added to the cells, and the response in cells was measured. Alternatively, in various further aspects, after establishment of a fluorescence baseline for about three seconds, the compounds of the present invention were added to the cells, and the response in cells was measured. Five minutes later, an mGluR5 agonist (e.g., glutamate, 3,5-dihydroxyphenylglycine, or quisqualate) was added to the cells, and the response of the cells was measured.
The above described assay operated in two modes. In the first mode, a range of concentrations of the present compounds were added to cells, followed by a single fixed concentration of agonist. If a compound acted as a potentiator, an EC50 value for potentiation and a maximum extent of potentiation by the compound at this concentration of agonist was determined by non-linear curve fitting. In the second mode, several fixed concentrations of the present compounds were added to various wells on a plate, followed by a range of concentrations of agonist for each concentration of present compound; the EC50 values for the agonist at each concentration of compound were determined by non-linear curve fitting. A decrease in the EC50 value of the agonist with increasing concentrations of the present compounds (a leftward shift of the agonist concentration-response curve) is an indication of the degree of mGluR5 potentiation at a given concentration of the present compound. An increase in the EC50 value of the agonist with increasing concentrations of the present compounds (a rightward shift of the agonist concentration-response curve) is an indication of the degree of mGluR5 antagonism at a given concentration of the present compound. The second mode also indicates whether the present compounds also affect the maximum response to mGluR5 to agonists.
The mGluR5 activity was determined using the metabotropic glutamate receptor activity assays in human embryonic kidney cells as described herein, wherein the human embryonic kidney cells were transfected with human mGluR5. The compounds in Table 1 were synthesized with methods identical or analogous to those shown herein. The requisite starting materials were commercially available, described in the literature, or readily synthesized by one skilled in the art of organic synthesis. The compound number given in Table I corresponds to the compound number in Table II and the structure given therein.
Human mGluR5a cDNA in pCMV6-XL6 mammalian expression plasmid was purchased from OriGene Technologies, Inc. (catalogue number SC326357) and subcloned into pcDNA3.1(−). Human embryonic kidney (HEK) 293A cells were then transfected with human mGluR5a pcDNA3.1(−) using LipofectAmine-2000 (Invitrogen) and monoclones were selected and tested for functional response using a Ca^2+ mobilization assay. Monoclones were named for the species (“H” for human) plus the location on the plate (e.g. “10H”).
HEK cells transfected with the human mGluR5a receptor (H10H or H12H cell line) were plated at 15,000 cells/well in clear-bottomed poly-D-lysine-coated assay plates (BD Falcon) in glutamate-glutamine-free growth medium and incubated overnight at 37° C. and 5% CO2.

T1 sequence (P41594 21-1180 isoform P41594-2 limits assumed): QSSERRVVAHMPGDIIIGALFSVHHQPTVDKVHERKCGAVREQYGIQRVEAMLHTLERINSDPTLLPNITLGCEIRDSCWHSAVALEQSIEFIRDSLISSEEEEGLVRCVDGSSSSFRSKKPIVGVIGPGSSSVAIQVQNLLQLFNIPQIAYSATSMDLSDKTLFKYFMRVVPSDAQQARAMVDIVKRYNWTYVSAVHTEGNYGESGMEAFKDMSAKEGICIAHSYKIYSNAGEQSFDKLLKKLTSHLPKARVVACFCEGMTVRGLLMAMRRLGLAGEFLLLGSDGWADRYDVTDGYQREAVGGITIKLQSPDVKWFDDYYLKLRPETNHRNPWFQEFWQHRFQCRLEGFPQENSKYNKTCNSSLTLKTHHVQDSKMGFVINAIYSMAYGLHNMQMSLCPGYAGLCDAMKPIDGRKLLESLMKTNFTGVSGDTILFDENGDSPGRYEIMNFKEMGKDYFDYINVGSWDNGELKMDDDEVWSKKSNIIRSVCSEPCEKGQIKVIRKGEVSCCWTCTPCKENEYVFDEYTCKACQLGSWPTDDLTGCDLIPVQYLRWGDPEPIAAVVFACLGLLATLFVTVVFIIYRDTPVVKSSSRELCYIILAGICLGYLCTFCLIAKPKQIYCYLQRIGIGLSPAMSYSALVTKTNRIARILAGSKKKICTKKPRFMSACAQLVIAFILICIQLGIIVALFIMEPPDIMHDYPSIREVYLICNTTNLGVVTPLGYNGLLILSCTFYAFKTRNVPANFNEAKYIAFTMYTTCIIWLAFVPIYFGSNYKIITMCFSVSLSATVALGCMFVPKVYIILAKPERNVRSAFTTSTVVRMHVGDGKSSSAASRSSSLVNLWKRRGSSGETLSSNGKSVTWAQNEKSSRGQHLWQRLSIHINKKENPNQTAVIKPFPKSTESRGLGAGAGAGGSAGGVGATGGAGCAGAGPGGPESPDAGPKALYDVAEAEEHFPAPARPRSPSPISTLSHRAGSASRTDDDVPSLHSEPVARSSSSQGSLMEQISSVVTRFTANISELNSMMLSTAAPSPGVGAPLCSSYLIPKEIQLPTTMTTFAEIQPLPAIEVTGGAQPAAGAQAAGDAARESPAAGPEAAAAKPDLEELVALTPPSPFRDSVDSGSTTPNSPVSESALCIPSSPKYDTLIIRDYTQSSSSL

pEC50	EC50 (read-out: EC50) [nM]	Emax (%)	Emax [%]	EC50 (read-out: pEC50 (converted)) [nM]	Compound
<4.52	> 30200	21	–	–	CC1CN(CC2CC2)C(=O)c2cc(COc3ccccc3)nn21 (single isomer, unassigned) [Example 129]
5.59	2570	65	–	–	O=C1c2cc(COc3ccccc3)nn2CCN1c1cccc(C2CCOCC2)n1 [Example 274]
7.01	98	68	–	–	COc1nc(N2CCn3nc(COc4ccccc4)cc3C2=O)ncc1C [Example 97]
6.37	430	68	–	–	COCc1ccccc1N1CCn2nc(COc3ccccc3)cc2C1=O [Example 63]
7.03	93	72	–	–	COc1nccnc1N1CCn2nc(COc3ccccc3)cc2C1=O [Example 103]
5.73	1860	64	–	–	O=C1c2cc(COc3ccccc3)nn2CCN1c1cccnc1 [Example 13]
<4.52	> 30200	28	–	–	N#Cc1cccc(OCc2cc3n(n2)CCN(CC2CC2)C3=O)c1 [Example 164]
<5.00	> 10000	46	–	–	O=C1c2cc(COc3ccnnc3)nn2CCN1c1ccc(F)cc1 [Example 201]
6.69	204	68	–	–	O=C1c2cc(COc3ccccc3)nn2CCN1c1cccc(CCF)n1 [Example 75]
<5.00	> 10000	65	–	–	CC(Oc1ccccc1)c1cc2n(n1)CCN(c1ccc(F)cc1)C2=O (racemic) [Example 258]
6.53	295	78	–	–	COc1cnc(N2CCn3nc(COc4ccccc4)cc3C2=O)cn1 [Example 101]
7.58	26	68	–	–	Cc1cc(N2CCn3nc(COc4ccccc4)cc3C2=O)ccc1F [Example 52]
6.59	260	67	–	–	Cc1ccccc1N1CCn2nc(COc3ccccn3)cc2C1=O [Example 219]
–	240	–	57	–	Cc1ccc(OCc2cc3n(n2)CCN(c2ccc(F)cc2)C3=O)cc1 [Example 192]
5.66	2190	48	–	–	COc1cccnc1N1CCn2nc(COc3ccccc3)cc2C1=O [Example 79]
–	214	–	69	–	C[C@@H]1Cn2nc(COc3cccc(C#N)c3)cc2C(=O)N1c1ccc(F)cc1 [Example 246]
–	617	–	52	–	O=c1c2nc(COc3ccccc3)nn2ccn1-c1ccc(F)cc1 [Example 4]
6.70	200	68	–	–	COc1nccc(N2CCn3nc(COc4ccccc4)cc3C2=O)n1 [Example 110]
–	61	–	58	–	Cc1cc(N2CCn3nc(COc4ccc(F)cc4)cc3C2=O)ccc1F [Example 225]
7.21	62	72	–	–	CC1CN(c2ccc(F)cc2)C(=O)c2cc(COc3cccc(F)c3)nn21 (single isomer, unassigned) [Example 239]
–	–	–	69	12.9	O=C1c2cc(COc3ccccc3)nn2CCN1c1ccc(F)c2ccccc12 [Example 368]
–	1100	–	68	–	O=C1c2cc(COc3ccccc3)nn2CCN1c1cnc2cccnn12 [Example 370]
6.08	830	57	–	–	COc1nccnc1N1CCn2nc(COc3ccc(F)cc3)cc2C1=O [Example 226]
6.83	148	66	–	–	O=C1c2cc(COc3cccc(F)c3)nn2CCN1c1ccc(F)cc1 [Example 188]

pEC50	EC50 (read-out: EC50) [nM]	Emax (%)	Emax [%]	EC50 (read-out: pEC50 (converted)) [nM]	Compound
7.39	41	77	–	–	CN(C)c1ccc(F)c(N2CCn3nc(COc4ccccc4)cc3C2=O)n1 [Example 283]
7.26	55	61	–	–	COc1cc(N2CCn3nc(COc4ccccc4)cc3C2=O)ccc1F [Example 51]
7.05	89	68	–	–	Cc1cccc(OCc2cc3n(n2)CC(C)N(c2ccc(F)cc2)C3=O)c1 (stereo not drawn) [Example 243]
<5.00	> 10000	46	–	–	CC1Cn2nc(COc3ccccc3)cc2C(=O)N1 (stereo not drawn) [Example 255]
6.24	575	63	–	–	CC1Cn2nc(COc3ccccc3)cc2C(=O)N1c1ccc(F)cc1 (stereo not drawn) [Example 157]
6.92	120	58	–	–	COc1ccc(N2CCn3nc(COc4ccccc4)cc3C2=O)cc1F [Example 58]
–	537	–	75	–	Cc1cccnc1N1CCn2nc(COc3ccccc3)cc2C1=O [Example 30]
6.78	170	72	–	–	COc1nc(N2CCn3nc(COc4ccc(F)cc4)cc3C2=O)ncc1C [Example 230]
6.95	112	63	–	–	O=C1c2cc(COc3ccccc3)nn2C(CF)CN1c1ccc(F)cc1 (racemic) [Example 264]
6.03	933	63	–	–	CNc1ccnc(N2CCn3nc(COc4ccccc4)cc3C2=O)n1 [Example 277]
<5.00	> 10000	55	–	–	Cn1cncc1N1CCn2nc(COc3ccccc3)cc2C1=O [Example 352]
6.98	105	71	–	–	O=C1c2cc(COc3ccc(F)cc3)nn2CCN1c1ccc(F)cc1 [Example 165]
6.41	389	55	–	–	Cc1nc(N2CCn3nc(COc4ccccn4)cc3C2=O)ccc1F [Example 205]
5.96	1100	66	–	–	COc1ccnc(N2CCn3nc(COc4ccccc4)cc3C2=O)c1 [Example 115]
<4.52	> 30200	28	–	–	CNc1cccc(OCc2cc3n(n2)CCN(c2ccc(F)cc2)C3=O)n1 [Example 311]
–	2510	–	47	–	O=C1c2cc(COc3ccccn3)nn2CCN1CC1CC1 [Example 162]
7.14	72	70	–	–	O=C1c2cc(COc3ccccc3)nn2CCN1c1ccc2nonc2c1 [Example 375]
<4.52	> 30200	17	–	–	O=C1c2c(Cl)c(COc3ccccc3)nn2CCN1c1ccc(F)cc1 [Example 260]
6.05	891	43	–	–	CC1Cn2nc(COc3ccccc3)cc2C(=O)N1c1ccc(F)cn1 (stereo not drawn) [Example 139]
–	2240	–	63	–	O=C1c2cc(COc3ccncc3)nn2CCN1CC1CC1 [Example 163]
7.14	72	66	–	–	O=C1c2cc(COc3ccccc3)nn2CCN1c1ccc2scnc2c1 [Example 361]
6.46	347	69	–	–	COc1ccc(F)c(N2CCn3nc(COc4ccccn4)cc3C2=O)n1 [Example 208]
7.40	40	73	–	–	O=C1c2cc(COc3ccccc3)nn2CCN1c1cccc(Cl)n1 [Example 365]
<5.00	> 10000	61	–	–	Cn1cc(N2CCn3nc(COc4ccccc4)cc3C2=O)cn1 [Example 320]
